In general, IC50 refers to the concentration at which inhibition is half-maximal. Usually EC50 stands for the midpoint of the concentration-response curve.

From US20120130146A1, “CONTINUOUS ADMINISTRATION OF CILENGITIDE IN CANCER TREATMENTS” (Merck Patent GmbH, priority 2009, published 2012) come the findings set out here.

SMILES strings stand for the structures.

In experiment [1] the test system is human umbilical vein endothelial cells (HUVECs). The experiment in a line: Growth (Alamar Blue) assay on HUVEC, Example 5. It is filed as cell-based. As to conditions: Homo sapiens. An excerpt: (§1) The methods established and described in detail previously (Goodman and Hahn a; b) were used to measure the effect of combinations of integrin inhibitors and chemotherapeutics on carcinoma cell and human endothelial cell proliferation.
(§2) Points were run in duplicate or in triplicate. Reagent blanks, containing media plus Alamar Blue without cells, were run on each plate. Blank values were subtracted from test values and were routinely 5-10% of uninhibited control values.
(§3) 5.5 Methods of Evaluation and Statistics Chemotherapeutic agents and αv-integrin blockers were serially diluted alone or together (combination therapy). In some assays the chemotherapeutic agent was serially diluted alone or in combination with of alpha-v integrin blocker. Growth inhibition curves were plotted and a shift of the combination therapy curve to lower concentrations in relation to the single agent curves was interpreted as an additional effect, produced by combination versus monotherapy.
(§4) The αv-integrin competitive inhibitor Cilengitide (EMD 121974) was tested alone and in combination with vinorelbine in a serum growth stimulation assay using human carcinoma cells or human umbilical vein endothelial cells (HUVECs). In these assays cells are cultured in serum, or in an endothelial growth stimulation medium (Goodman & Hahn).
(In general: Alamar Blue is a resazurin reagent that responds to reducing activity.)

Experiment [2] deals with A498. The experiment is described as follows: Cell proliferation assay on A498 renal carcinoma cells. It is filed as cell-based, human. As to conditions: for EC50: Homo sapiens, Renal A498, chemotherapeutic alone or + Cilengitide.
Text: as §1, §2, §3, §4
Cilengitide concentration is 2 μM (constant).

Experiment [3] concerns A549. The experiment is described as follows: Serum growth stimulation assay on A549 NSCLC cells, Example 5. It is filed as cell-based, human. As to conditions: for EC50: Homo sapiens, NSCLC A549, chemotherapeutic alone or + Cilengitide.
Text: as §1, §2, §3, §4

The test system of experiment [4] is Detroit 562. The experiment is described as follows: Cell proliferation assay on SCCHN Detroit 562 cells. It is filed as cell-based, human.
[5] abbreviates: in combination with 2 μM Cilengitide.

Take `CCC1=C[C@@H]2CN(C1)Cc1c([nH]c3ccccc13)[C@@](C(=O)OC)(c1cc3c(cc1OC)N(C)[C@H]1[C@@](O)(C(=O)OC)[C@H](OC(C)=O)[C@]4(CC)C=CCN5CC[C@]31[C@@H]54)C2` [Vinorelbine]: the IC50 in experiment [1] (agent alone) was 20 nM; in experiment [1] (setting [5]), 0.8 nM. For the same compound, the “enhancement of growth inhibition by the presence of cilengitide” value in experiment [2] (A498), in experiment [3] (A549) and in experiment [4] was “synergistically enhanced” in each case. Moreover, the EC50 is 60 nM in experiment [2] and 8 nM in experiment [3].

For the compound `CC(=O)O[C@H]1C(=O)[C@@]2(C)[C@H]([C@H](OC(=O)c3ccccc3)[C@]3(O)C[C@H](OC(=O)[C@H](O)[C@@H](NC(=O)c4ccccc4)c4ccccc4)C(C)=C1C3(C)C)[C@]1(OC(C)=O)CO[C@@H]1C[C@@H]2O` [Paclitaxel], the concentration for half-maximal inhibition (IC50) in experiment [1] (agent alone) turned out to be 10 nM; in experiment [1] (setting [5]), 0.05 nM. Also, the half-maximal effective concentration (EC50) was found to be 100 nM in experiment [2] and 8 nM in experiment [3].
